Measured values: paper PMC4928627 (Journal of Natural Products, 2016)

How the values were obtained:
[1] = test system: CHIKV Indian Ocean strain 899; assay: CHIKV CPE reduction assay; assay type: cell-based, chikungunya virus (CHIKV); details: BGM cells, 0.001 MOI CHIKV 899, day 5 p.i.
human cancer cell lines = details: growth inhibition; cited from earlier work
BGM cells = assay: Cytotoxic/cytostatic effect in uninfected cells; assay type: cell-based, buffalo green monkey; details: compound alone

CCC/C=C/C=C/C(=O)O[C@H]1/C(=C/C(=O)OC)C[C@H]2C[C@H]([C@@H](C)O)OC(=O)C[C@H](O)C[C@@H]3C[C@H](OC(C)=O)C(C)(C)[C@](O)(C[C@@H]4C/C(=C/C(=O)OC)C[C@H](/C=C/C(C)(C)[C@]1(O)O2)O4)O3 [compound 1, Bryostatin 1, reference compound]
EC50 (concentration of compound that reduces the CHIKV-induced cytopathic effect by 50%) ([1]; listed as bryostatin): ineffective | EC50 (concentration of compound that reduces the CHIKV-induced cytopathic effect by 50%) ([1]; listed as bryostatin 1): inactive

CCCCCCCC(=O)O[C@H]1/C(=C/C(=O)OC)C[C@H]2C[C@H](CO)OC(=O)C[C@H](O)C[C@@H]3CCC[C@H](C[C@@H]4CCO[C@H](/C=C/C(C)(C)[C@]1(O)O2)O4)O3 [compound 3]
effectiveness of the analogue relative to the natural product (bryostatin) (human cancer cell lines): 2–3 orders of magnitude

CCCCCCCC(=O)O[C@H]1/C(=C/C(=O)OC)C[C@H]2C[C@H](CO)OC(=O)C[C@H](O)C[C@@H]3C[C@H](OC(C)=O)C(C)(C)[C@H](C[C@@H]4CCO[C@H](/C=C/C(C)(C)[C@]1(O)O2)O4)O3 [compound 10]
CC50 (concentration at which cell viability is 50% relative to untreated cells) (BGM cells): nontoxic | EC50 (concentration of compound that reduces the CHIKV-induced cytopathic effect by 50%) [1]: potent

C=C1C[C@H]2C[C@]3(O)O[C@H](C[C@@H](O)CC(=O)O[C@@H](CO)C[C@@H]4C/C(=C\C(=O)OC)[C@H](OC(=O)CCCCCCC)[C@@](O)(O4)C(C)(C)/C=C/[C@@H](C1)O2)C[C@H](OC(C)=O)C3(C)C [compound 19]
EC50 (concentration of compound that reduces the CHIKV-induced cytopathic effect by 50%) [1]: toxicity before any observable cell-protective effect

C=C1C[C@H]2C[C@]3(O)O[C@H](C[C@@H](O)CC(=O)O[C@@H](CO)C[C@@H]4C/C(=C\C(=O)OC)[C@H](OC(=O)CCCCCCC)[C@@](O)(O4)C(C)(C)/C=C/[C@@H](C1)O2)C[C@H](O)C3(C)C [compound 18]
EC50 (concentration of compound that reduces the CHIKV-induced cytopathic effect by 50%) [1]: toxicity before any observable cell-protective effect
